The target of series [1] is T1, Human recombinant liver glycogen phosphorylase a (hrl GPa) (Homo sapiens, UniProt P06737).
T1 sequence (P06737 1-847): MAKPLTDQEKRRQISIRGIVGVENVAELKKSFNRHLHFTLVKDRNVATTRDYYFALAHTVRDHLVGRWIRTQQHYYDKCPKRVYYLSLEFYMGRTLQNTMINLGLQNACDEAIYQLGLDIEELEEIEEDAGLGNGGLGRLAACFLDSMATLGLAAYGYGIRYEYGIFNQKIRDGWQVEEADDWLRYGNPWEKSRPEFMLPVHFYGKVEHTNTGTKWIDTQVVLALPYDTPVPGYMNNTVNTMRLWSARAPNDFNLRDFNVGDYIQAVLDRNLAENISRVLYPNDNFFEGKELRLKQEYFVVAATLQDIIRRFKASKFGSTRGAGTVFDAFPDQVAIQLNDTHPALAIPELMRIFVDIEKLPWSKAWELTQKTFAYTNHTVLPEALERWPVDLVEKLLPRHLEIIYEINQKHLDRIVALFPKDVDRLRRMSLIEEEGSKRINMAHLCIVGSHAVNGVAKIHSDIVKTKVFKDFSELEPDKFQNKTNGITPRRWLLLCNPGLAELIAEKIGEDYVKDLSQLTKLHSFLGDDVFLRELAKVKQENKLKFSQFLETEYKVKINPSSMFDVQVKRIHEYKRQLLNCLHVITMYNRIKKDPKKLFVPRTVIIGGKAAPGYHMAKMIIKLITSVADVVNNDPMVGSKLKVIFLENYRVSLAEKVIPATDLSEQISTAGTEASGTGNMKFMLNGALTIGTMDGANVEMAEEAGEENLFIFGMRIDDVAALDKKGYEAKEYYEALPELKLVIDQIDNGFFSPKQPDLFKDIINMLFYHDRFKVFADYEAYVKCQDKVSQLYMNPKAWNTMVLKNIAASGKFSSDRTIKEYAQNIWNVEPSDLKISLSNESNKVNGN
The series can be described thus: glycogen phosphorylase inhibition, multienzyme coupled assay. It counts as biochemical. The procedure:
The activity of the compounds is determined by measuring the inhibitory effect of the compounds on glycogen degradation, the production of glucose-1-phosphate from glycogen is monitored by the multienzyme coupled assay, as described in EP 0 846 464 A2, general method of Pesce et al (Pesce, M A, Bodourian, S H, Harris, R C, and Nicholson, J F (1977) Clinical Chemistry 23, […]). The reactions were in 384 well microplate format in a volume of 50 μl. The change in fluorescence due to the conversion of the co-factor NAD to NADH is measured at 340 nm excitation, 465 nm emission in a Tecan Ultra Multifunctional Microplate Reader. The reaction is in 50 mM HEPES, 3.5 mM KH2PO4, 2.5 mM MgCl2, 2.5 mM ethylene glycol-bis(b-aminoethyl ether) N,N,N′,N′-tetraacetic acid, 100 mM KCl, 8 mM D-(+)-glucose pH7.2, containing 0.5 mM dithiothreitol, the assay buffer solution. Human recombinant liver glycogen phosphorylase a (hrl GPa) 20 nM is pre-incubated in assay buffer solution with 6.25 mM NAD, 1.25 mg type III glycogen at 1.25 mg ml^−1 the reagent buffer, for 30 minutes. The coupling enzymes, phosphoglucomutase and glucose-6-phosphate dehydrogenase (Sigma) are prepared in reagent buffer, final concentration 0.25 Units per well. 20 μl of the hrl GPa solution is added to 10 μl compound solution and the reaction started with the addition of 20 μl coupling enzyme solution. Compounds to be tested are prepared in 10 μl 5% DMSO in assay buffer solution, with final concentration of 1% DMSO in the assay. The non-inhibited activity of GPa is measured in the presence of 10 μl 5% DMSO in assay buffer solution and maximum inhibition measured in the presence of 5 mgs ml^−1 N-ethylmaleimide. After 6 hours at 30° C. Relative Fluoresence Units (RFUs) are measured at 340 nm excitation, 465 nm emission.
The assay is performed at a test concentration of inhibitor of 10 μM or 100 μM.

For series [2] the following is noted: conscious dogs, following a glucagon challenge; cited from earlier work.
The subject of series [3] is hepatocytes. To be noted: cited from earlier work.
For series [4] the following is noted: db/db and ob/ob mice; dose related; cited from earlier work.
The nature of series [5]: thermodynamic solubility. It counts as physicochemical. The conditions noted are these: 0.1 M phosphate buffer, pH 7.4, aqueous buffer, thermodynamic from solid, 0.1 M phosphate at pH7.4 for 24 hours.
The mark [6] stands for this setting: hrl GPa 20 nM, 6 hours at 30° C., read-out: Activity (μM) IC50.

Values after ≈ are worked out from the molar mass of the structure shown. Read-outs that look alike come from different tables or passages of the source.

Take “2-Chloro-N-{(1R,2R)-1-[[(2S)-2,3-dihydroxypropanoyl](methyl)amino]-2,3-dihydro-1H-inden-2-yl}-6H-thieno[2,3-b]pyrrole-5-carboxamide [Example 8]”: the IC50 was determined as 0.07 µM in series [1] (setting [6]) and 0.176 µM in series [1] (text b160, unit printed as nm, read-out: IC50).
Regarding `CCN1C(C)=C(C(=O)OC(C)C)C(c2ccccc2Cl)C2=C1COC2=O` (stereo not drawn) [Bay R 3401], in series [2], the arterial plasma glucose entry was “reduced significantly” and the hepatic glucose output entry was “reduced significantly”.
`CN(C)C(=O)[C@H](O)[C@H](Cc1ccccc1)NC(=O)c1cc2cc(Cl)ccc2[nH]1` [CP91149]: in series [3], the glucagon stimulated glycogenolysis result is recorded as “reduce” and the “glucose output in hepatocytes” value is “reduce”. Moreover, the plasma glucose concentration entry in series [4] is “reduced”.
As to `O=C(N[C@@H](Cc1ccc(F)cc1)C(=O)N1CCC(O)CC1)c1cc2cc(Cl)ccc2[nH]1` [CP320626], in series [3], the glucagon stimulated glycogenolysis result was “reduce” and the “glucose output in hepatocytes” value is reported as “reduce”. In addition, the plasma glucose concentration entry in series [4] is “reduced”.
On to `COCC(=O)N(C)[C@@H]1c2ccccc2C[C@H]1NC(=O)c1cc2cc(Cl)sc2[nH]1` [Example 1, 2-Chloro-N-{(1R,2R)-1-[(methoxyacetyl)(methyl)amino]-2,3-dihydro-1H-inden-2-yl}-6H-thieno[2,3-b]pyrrole-5-carboxamide], for which the IC50 in series [1] (text b160, read-out: IC50) was 0.265 µM.
`CN(C(=O)[C@@H](N)CO)[C@@H]1c2ccccc2C[C@H]1NC(=O)c1cc2sc(Cl)c(Cl)c2[nH]1.Cl` [Example 27, 2,3-Dichloro-N-{(1R,2R)-1-[methyl(L-seryl)amino]-2,3-dihydro-1H-inden-2-y}-4H-thieno[3,2-b]pyrrole-5-carboxamide hydrochloride]: in series [5], the solubility at 24 h worked out at 50 µM. For the same compound, the IC50 in series [1] (setting [6]) was 0.11 µM.
Compound `CC(=O)N(C)[C@@H]1c2ccccc2C[C@H]1NC(=O)c1cc2sc(Cl)c(Cl)c2[nH]1` [Reference Eg 1] gave a solubility at 24 h in series [5] of 1.4 µM (≈ 0.591 µg/mL). In series [1] (setting [6]), the IC50 is around 0.4 µM.

By IC50 is commonly meant the concentration at which inhibition is half-maximal. As a reminder, the solubility is how much of the substance goes into solution per volume. Low values mean little dissolved substance, high ones much dissolved substance.
